Values quoted from earlier work, collected in US6632839B2, “Capsicum based disinfectant and sterilizant” (priority 1997, dated 2003).
Like-named read-outs stand apart in the source and are kept apart here.

Conditions: for Solubility in water: water / cold water

Structure (SMILES): COc1cc(CNC(=O)CCCC/C=C/C(C)C)ccc1O [Capsaicin, N-vanillyl-8-methyl-6-(E)-noneamide]
- Solubility in alcohol, fats, oils: very soluble in fats, oils and alcohol
- Solubility in alcohol, fats, oils (listed as capsaicin): soluble in alcohol
- Solubility in water: sparingly soluble in water
- Solubility in water (listed as capsaicin): insoluble in cold water
